Experimental data reported in publication PMC4539253 (Bioorganic & medicinal chemistry letters, 2014).
Marks after values point to notes of the source that are not given here.

What was measured:
Caco-2 = Caco-2 permeability; format: in vitro ADME; details: <15 is limit of detection
human-CCR2 knock-in mice = assay: 6-h thioglycollate; details: mouse, in vivo
mouse CCR2 = mouse CCR2 (Mus musculus, UniProt P51683); assay: Activity versus mouse CCR2
CCR2 = CCR2 (Homo sapiens, UniProt P41597); assay: CCR2 binding
CCR2, sequence (P41597 whole entry): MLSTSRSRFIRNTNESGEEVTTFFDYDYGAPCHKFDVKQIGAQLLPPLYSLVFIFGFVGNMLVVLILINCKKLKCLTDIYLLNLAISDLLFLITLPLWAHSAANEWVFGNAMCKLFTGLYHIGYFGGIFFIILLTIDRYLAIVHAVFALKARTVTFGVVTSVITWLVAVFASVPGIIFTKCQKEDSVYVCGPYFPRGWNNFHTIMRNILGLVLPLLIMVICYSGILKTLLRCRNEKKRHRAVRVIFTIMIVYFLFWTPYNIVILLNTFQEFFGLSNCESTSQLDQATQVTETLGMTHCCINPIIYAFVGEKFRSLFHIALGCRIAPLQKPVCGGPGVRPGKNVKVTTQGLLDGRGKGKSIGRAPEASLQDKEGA

wild-type mice = assay: TG-induced peritonitis model using wild-type mice; format: in vivo, mouse; details: data not shown

mouse CCR2, sequence (P51683 whole entry): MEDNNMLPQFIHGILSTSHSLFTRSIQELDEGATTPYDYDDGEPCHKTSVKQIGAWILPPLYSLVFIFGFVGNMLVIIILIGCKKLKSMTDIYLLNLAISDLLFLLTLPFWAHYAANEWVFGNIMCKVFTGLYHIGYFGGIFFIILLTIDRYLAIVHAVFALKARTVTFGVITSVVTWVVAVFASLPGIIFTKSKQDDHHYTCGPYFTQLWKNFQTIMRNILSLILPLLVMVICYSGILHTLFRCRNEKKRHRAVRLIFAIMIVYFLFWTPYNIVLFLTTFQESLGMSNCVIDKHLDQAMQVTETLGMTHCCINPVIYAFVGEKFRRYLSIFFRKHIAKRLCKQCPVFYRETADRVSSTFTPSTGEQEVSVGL

Row | SMILES | Caco-2 PAP-BL (Caco-2) | activity versus mouse CCR2 (mouse CCR2) | further results
1 | CC(C)N(C)[C@@H]1CC[C@H](N2CC[C@H](NC(=O)c3cccc(C(F)(F)F)c3)C2=O)[C@H](CS(=O)(=O)c2ccccc2)C1 [Compound 1] | <15 ^e nm/s |  | 
2 | CC(C)N(C)[C@@H]1CC[C@H](N2CC[C@H](NC(=O)c3cccc(C(F)(F)F)c3)C2=O)[C@H](CS(C)(=O)=O)C1 [Compound 2] | <15 nm/s | poor activity | inflammatory monocytes (Ly6C+F4/80+) in blood as compared to vehicle (human-CCR2 knock-in mice): significant reduction; loss in CCR2 binding affinity as compared to 1 (CCR2; compared to 1): ~2 fold
3 | CCS(=O)(=O)C[C@@H]1C[C@H](N(C)C(C)C)CC[C@@H]1N1CC[C@H](NC(=O)c2cccc(C(F)(F)F)c2)C1=O [Compound 8] | <15 nm/s |  | IC50 (CCR2): 1.3 ± 0.02 nM
4 | CC(C)N(C)[C@@H]1CC[C@H](N2CC[C@H](NC(=O)c3cccc(C(F)(F)F)c3)C2=O)[C@H](CS(=O)(=O)C(C)C)C1 [Compound 10] | <15 nm/s |  | increase in CCR2 binding affinity as compared to 2 (CCR2; compared to 2): 6 fold
5 | CC(C)N(C)[C@@H]1CC[C@H](N2CC[C@H](NC(=O)c3cccc(C(F)(F)F)c3)C2=O)[C@H](CS(=O)(=O)C(C)(C)C)C1 [Compound 12] | 30 nm/s | poor activity | activity in TG-induced peritonitis model (wild-type mice): did not show any activity
